Marks after values point to notes of the source that are not given here.
Tests used:
[1] = system: Landrace x Large White binary sows; test: Pregnancy, farrowing rate, litter size and piglet index of gilts in batch farrowing with FTAI (Example 3); assay type: in vivo, pigs
Method: The term “farrowing rate”, as used herein, was calculated as the percentage of the number of farrowed sows divided by the number of mated gilts and sows.
For example, in the case of a certain batch of sows, the farrowing rate=the number of farrowing sows/the number of mated gilts and sows×100%.
The term “Piglet Index (PI)”, as used herein, refers to the total number of live piglets born per 100 gilts or sows that have been naturally mated or artificially inseminated. The calculation method is the average number of born alive per litter multiplied by the farrowing rate and then multiplied by the total gilts or sows (100).
The breed of the gilts used in this example was Landrace x Large White binary sows, the reserve sows were randomly divided into the following 4 groups, and the treatment method for each group was as follows:
batch farrowing with FTAI: the sows were fed with an altrenogest oral solution at 20 mg/gilt at the same time every day, for 18 days; PMSG at 1000 IU/gilt was injected intramuscularly 42 h after the last feeding with altrenogest, GnRH at 100 μg/gilt was further injected intramuscularly 80 h after the intramuscular injection of PMSG, a first timed insemination was performed 24 h after the injection of GnRH, and a second timed insemination was performed after 24 h.
Treatment group 1 (batch farrowing with FTAI, with supplementing with 1-[bis(4-cyanophenyl)methyl]-1,2,4-triazole (12 μg/kg·BW, orally once)): The hormone treatment and mating schemes for gilts were the same as those for gilts in the batch farrowing with FTAI. The gilts were administered orally once with 1-[bis(4-cyanophenyl)methyl]-1,2,4-triazole at 12 μg/kg·BW 8 h after the injection of PMSG.
Treatment group 2 (batch farrowing with FTAI, with supplementing with 1-[bis (4-cyanophenyl)methyl]-1,2,4-triazole (12 μg/kg·BW, orally twice)): The hormone treatment and mating schemes for gilts were the same as those for gilts in the batch farrowing with FTAI. The gilts were administered orally once with 1-[bis(4-cyanophenyl)methyl]-1,2,4-triazole at 12 μg/kg·BW 8 h after the injection of PMSG, and then orally once with 1-[bis(4-cyanophenyl)methyl]-1,2,4-triazole at 12 μg/kg·BW after another 24 h.
Treatment group 3 (batch farrowing with FTAI, supplemented with 1-[bis(4-cyanophenyl)methyl]-1,2,4-triazole (20 μg/kg·BW, orally in a single dose)): The hormone treatment and mating schemes for gilts were the same as those for gilts in the batch farrowing with FTAI. The gilts were administered orally once with 1-[bis(4-cyanophenyl)methyl]-1,2,4-triazole at 20 μg/kg·BW 8 h after the injection of PMSG.
The farrowing rate and piglet index of sows in the different treatment groups were calculated as follows:
wherein Piglet Index (PI), a comprehensive index to measure the overall reproductive performance of a sow population at present in production, refers to the number born alive from every 100 gilts or sows, who have undergone natural mating or artificial insemination.

[2] = system: Landrace x Large White binary sows; test: Number of ovulated oocytes (corpora lutea) in gilts slaughtered 16 days after mating (Example 4); assay type: in vivo, pigs; conditions: single low dose 12 μg/kg·BW, compared with batch farrowing with FTAI
Method: The breed of the gilts used in this experiment was Landrace x Large White binary sows, the gilts were randomly divided into the following 3 groups, and the treatment method for each group was as follows:
batch farrowing with FTAI: the gilts were fed with an altrenogest oral solution at 20 mg/gilt at the same time every day, for 18 days; PMSG at 1000 IU/gilt was injected intramuscularly 42 h after the last feeding with altrenogest, GnRH at 100 μg/gilt was injected intramuscularly after another 80 h, the first timed insemination was performed 24 h after the injection of GnRH, and the second timed insemination was performed after 24 h.
Treatment group 1 (batch farrowing with FTAI, with supplementing with 1-[bis(4-cyanophenyl)methyl]-1,2,4-triazole (12 μg/kg·BW, orally in a single dose): The hormone treatment and mating schemes for gilts were the same as those for gilts in the batch farrowing with FTAI. The gilts were administered orally once with 1-[bis(4-cyanophenyl)methyl]-1,2,4-triazole at 12 μg/kg·BW 8 h after the injection of PMSG.
The gilts in the batch farrowing with FTAI and the gilts in the batch farrowing with FTAI supplementing once with 1-[bis(4-cyanophenyl)methyl]-1,2,4-triazole (12 μg/kg·BW) were slaughtered. The gilts were slaughtered 16 days after mating, with 4 gilts slaughtered per group. […]

[3] = Example 3, low-dose (treatment groups 1, 2, and 3), compared with batch farrowing with FTAI
[4] = Example 3, treatment group 1 (12 μg/kg·BW orally once), compared with batch farrowing with FTAI
[5] = Example 3, treatment groups 2 and 3
[6] = Example 3 Treatment group 1: 12 μg/kg·BW orally once, gilts
[7] = Example 3 Treatment group 2: 12 μg/kg·BW orally twice, 24 h apart, gilts
[8] = Example 3 Treatment group 3: 20 μg/kg·BW orally in a single dose, gilts

Compound: N#Cc1ccc(C(c2ccc(C#N)cc2)n2cncn2)cc1 [1-[bis(4-cyanophenyl)methyl]-1,2,4-triazole]
- estrus rate ([1]; Example 3, 20 μg/kg·BW group compared with 12 μg/kg·BW group): slightly lower
- Piglet index [1, 3]: significantly increased
- farrowing rate [1, 3]: significantly increased
- pregnancy rate [1, 3]: significantly increased
- Healthy litter size [1, 4]: significantly higher
- number born alive [1, 4]: significantly higher
- Healthy litter size [1, 5]: increasing trend
- number born alive [1, 5]: increasing trend
- estrus rate ([1]; Example 3, treatment groups with different doses, compared with batch farrowing with FTAI): no significant difference
- Delivery rate (%) [1, 6]: 88.00^b %
- Estrus rate (%) [1, 6]: 92.00%
- Healthy litter size [1, 6]: 12.12 ± 0.32^b
- Live litter size [1, 6]: 12.44 ± 0.30^b
- Piglet index [1, 6]: 1094
- Pregnancy rate (%) [1, 6]: 92.00^b %
- Stillborn + mummy [1, 6]: 1.80 ± 0.22
- Total number born litter size [1, 6]: 13.96 ± 0.30
- Weak litter [1, 6]: 0.24 ± 0.10
- Delivery rate (%) [1, 7]: 83.33^b %
- Estrus rate (%) [1, 7]: 93.75%
- Healthy litter size [1, 7]: 11.72 ± 0.43^a
- Live litter size [1, 7]: 12.00 ± 0.45^a
- Piglet index [1, 7]: 1000
- Pregnancy rate (%) [1, 7]: 95.83^b %
- Stillborn + mummy [1, 7]: 1.56 ± 0.16
- Total number born litter size [1, 7]: 13.76 ± 0.62
- Weak litter [1, 7]: 0.28 ± 0.09
- Delivery rate (%) [1, 8]: 81.48^b %
- Estrus rate (%) [1, 8]: 88.89%
- Healthy litter size [1, 8]: 11.76 ± 0.37^a
- Live litter size [1, 8]: 12.04 ± 0.42^a
- Piglet index [1, 8]: 981
- Pregnancy rate (%) [1, 8]: 85.19^b %
- Stillborn + mummy [1, 8]: 1.88 ± 0.39
- Total number born litter size [1, 8]: 14.04 ± 0.53
- Weak litter [1, 8]: 0.40 ± 0.10
- live piglets (weaned piglets) increased by every 100 gilts ([1]; per 100 gilts, method of the disclosure versus batch farrowing with FTAI): 190 live piglets
- number of ovulated oocytes [2]: no significant effect
